# PubChem BioAssay AID1645862 (Buhrlage Lab, Dana-Farber Cancer Institute and Novartis …, 2021)
# The source made the active and inactive calls. No rule for the calls is given here. Bridge positions count the residues as written; N and C are the ends. Peptide text beside a SMILES is read from it. * marks the point of attachment. ξ: configuration not given here. Pentadecanoyl(3ξ-OH,15-Gua) = N=C(N)NCCCCCCCCCCCCC(O)CC(=O)*
# Target: Ubiquitin carboxyl-terminal hydrolase 8 (Homo sapiens) (UniProt P40818)
# Test: Ubiquitin-specific protease 8 inhibitors, concentration-effect, biochemical, validation of initial actives (AID 1645862);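 also: potency reflects inhibition of USP8 cleavage of a ubiquitin rhodamine substrate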
# Settings: recombinant USP8 deubiquitinase activity assay
# Chain of Ubiquitin carboxyl-terminal hydrolase 8 (Homo sapiens) (P40818 whole entry, looked up): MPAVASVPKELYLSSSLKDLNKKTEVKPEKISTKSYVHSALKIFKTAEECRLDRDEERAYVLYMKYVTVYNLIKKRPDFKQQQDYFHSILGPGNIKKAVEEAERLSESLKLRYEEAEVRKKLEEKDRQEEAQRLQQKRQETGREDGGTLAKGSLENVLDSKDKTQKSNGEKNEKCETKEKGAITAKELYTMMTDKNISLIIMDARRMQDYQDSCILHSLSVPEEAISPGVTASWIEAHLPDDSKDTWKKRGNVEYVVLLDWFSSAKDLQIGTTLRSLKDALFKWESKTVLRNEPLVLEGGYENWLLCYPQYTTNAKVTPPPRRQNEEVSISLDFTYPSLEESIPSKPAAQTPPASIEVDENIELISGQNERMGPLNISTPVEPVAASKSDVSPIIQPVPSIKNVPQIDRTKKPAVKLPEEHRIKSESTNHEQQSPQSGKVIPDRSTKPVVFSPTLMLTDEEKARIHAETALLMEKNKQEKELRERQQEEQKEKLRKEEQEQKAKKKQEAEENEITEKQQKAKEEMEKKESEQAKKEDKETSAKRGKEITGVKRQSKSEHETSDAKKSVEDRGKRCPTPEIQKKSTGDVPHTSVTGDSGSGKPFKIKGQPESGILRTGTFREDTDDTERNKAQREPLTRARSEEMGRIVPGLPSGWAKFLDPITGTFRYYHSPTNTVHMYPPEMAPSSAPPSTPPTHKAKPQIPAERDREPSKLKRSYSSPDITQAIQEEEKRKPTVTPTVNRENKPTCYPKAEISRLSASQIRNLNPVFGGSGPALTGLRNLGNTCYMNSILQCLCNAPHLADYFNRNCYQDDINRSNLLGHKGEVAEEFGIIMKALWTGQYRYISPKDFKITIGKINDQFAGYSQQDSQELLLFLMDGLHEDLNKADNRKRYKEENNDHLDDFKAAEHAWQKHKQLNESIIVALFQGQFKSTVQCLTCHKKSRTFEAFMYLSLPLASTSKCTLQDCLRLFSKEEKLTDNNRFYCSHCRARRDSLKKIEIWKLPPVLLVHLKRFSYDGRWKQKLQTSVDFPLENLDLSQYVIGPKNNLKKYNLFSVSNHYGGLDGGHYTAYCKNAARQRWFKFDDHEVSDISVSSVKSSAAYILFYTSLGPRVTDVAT
row,IC50,Structure (SMILES)
1,> 40 µM (inactive),Cc1ccc(NC(=O)Nc2ccccc2OCc2cc(=O)n3cc(C)ccc3n2)cc1
2,> 40 µM (inactive),Cc1ccnc(Nc2nc(-c3ccccc3)c3cc(Cl)ccc3n2)n1
3,> 40 µM (inactive),Cc1nc(N2CCCC2)ncc1-c1cc(=O)[nH]c(Nc2ccc(Cl)cc2Cl)n1
4,> 40 µM (inactive),CCOC(=O)c1ccc(NC(=O)Cn2c(=O)n(CC(=O)NCc3ccco3)c(=O)c3ccccc32)cc1
5,> 40 µM (inactive),COC(=O)c1ccccc1NC(=O)Cn1c(=O)n(CCCC(=O)NCc2ccco2)c(=O)c2ccccc21
6,> 40 µM (inactive),COc1ccc(OC)c(NC(=O)c2cc(Cl)ccc2OC)c1
7,> 40 µM (inactive),Cc1ccc(CNC(=O)c2ccc3nn(CC(=O)Nc4ccccc4F)c(=O)n3c2)cc1
8,> 40 µM (inactive),Cc1ccc(Nc2nc(O)c(CC(=O)Nc3ccccc3C)s2)cc1C
9,> 40 µM (inactive),CCOc1ccc2c(c1)c(=O)c(C(=O)c1ccccc1)cn2CC(=O)Nc1ccccc1
10,> 40 µM (inactive),Cc1ccc(Cn2c(=O)c3ncccc3n(CC(=O)NCc3ccc(F)cc3)c2=O)cc1
11,> 40 µM (inactive),COc1ccc(NC(=O)Cn2c(=O)n(CCC(=O)NCc3ccccc3)c(=O)c3sccc32)cc1Cl
12,33 µM,COc1cc(OC)cc(-c2nc(-c3cn(-c4cccc(F)c4)nn3)no2)c1
13,28.6 µM,CC(C)c1ccc(NC(=O)c2cc(-c3cccnc3)n[nH]2)cc1
14,> 40 µM (inactive),Cc1ccc(Nc2nc3c(S(=O)(=O)c4ccccc4)nnn3c3ccccc23)c(C)c1
15,> 40 µM (inactive),Cc1cccc(NC(=O)CSc2nnc(-c3n[nH]c4c3CCC4)n2N)c1C
16,> 40 µM (inactive),O=C(Cn1c(-c2nc(-c3cccc(F)c3)no2)cccc1=O)NCc1ccco1
17,27.8 µM,COc1ccccc1-c1nc(-c2cn(-c3ccc(F)cc3)nn2)no1
18,> 40 µM (inactive),COc1ccc(C(=O)Nc2ccccc2C(=O)NC(Cc2ccc(O)cc2)C(=O)NNC(=O)c2ccccc2Cl)cc1 (stereo not given)
19,> 40 µM (inactive),Cc1ccc(-c2cc(=O)n(CC(=O)Nc3ccc(C(C)C)cc3)cn2)cc1
20,> 40 µM (inactive),COc1ccc(C)cc1NC(=O)Nc1nnc(CC(=O)NCc2ccccc2)s1
21,> 40 µM (inactive),O=C(NCCc1cccnc1)c1ccn(-c2ccc3ccccn23)n1
22,> 40 µM (inactive),COc1ccc(OC)c(NC(=O)Cn2c(=O)n(C3CCCCC3)c(=O)c3ccccc32)c1
23,> 40 µM (inactive),O=C(Cn1c(=O)[nH]c2c(-c3ccc(F)cc3)c[nH]c2c1=O)NCc1ccc(F)cc1

row,IC50,Structure (SMILES)
1,> 40 µM (inactive),Cc1cc(C)cc(NC(=O)C2CC(=O)Nc3nc4ccccc4n32)c1 (stereo not given)
2,33.2 µM,C[C@H](Cc1cc2c(cc1O)OCO2)[C@@H](C)Cc1cc2c(cc1O)OCO2
3,> 40 µM (inactive),CN1CC(c2ncn[nH]2)c2cc(C(=O)NCc3cccc(F)c3)ccc21 (stereo not given)
4,> 40 µM (inactive),O=C(NCc1ccccc1)Nc1cccc2ccccc12
5,> 40 µM (inactive),COc1ccccc1NC(=O)CSC1=NC2(CCCCC2)Nc2ccccc21
6,> 40 µM (inactive),COc1ccc(S(=O)(=O)NCc2ccc3c(c2)cc(C)n3C)cc1
7,> 40 µM (inactive),Cc1c(Cl)cccc1NC(=O)Cn1cc(C(=O)C2CC2)c2ccccc21
8,> 40 µM (inactive),O=C(Nc1cc(F)c2nc(N3CCCC3)ccc2c1)c1ccco1
9,> 40 µM (inactive),CN1CCc2c(C#N)c(N3CCOCC3)nc(NCC3CCCO3)c2C1 (stereo not given)
10,> 40 µM (inactive),COC(=O)Nc1cccn(Cc2c(Cl)cccc2Cl)c1=O
11,> 40 µM (inactive),O=C(CSc1nnc2ccc3ccccc3n12)c1ccc(Cl)cc1
12,> 40 µM (inactive),CC(=O)Nc1ccc(S(=O)(=O)NCc2ccc(C(=O)NCCc3ccc(Cl)cc3)cc2)cc1
13,> 40 µM (inactive),"CC1NC(=O)C(CC(N)=O)NC(=O)C(C(C)O)NC(=O)C(Cc2ccc(O)cc2)NC(=O)C(C(C)C)NC(=O)C(NC(=O)CC(O)CCCCCCCCCCCCN=C(N)N)C(C)OC1=O (stereo not given) ({Pentadecanoyl(3ξ-OH,15-Gua)}-TVYTNA; ester 1-C; configuration not given here)"
14,24.4 µM,O=C(NC(Cc1ccccc1)c1nc2ccccc2[nH]1)C1CC1 (stereo not given)
15,> 40 µM (inactive),O=C(Cc1ccc(-n2c(=O)c3ccccc3n(Cc3cccc(F)c3)c2=O)cc1)NC1CCCC1
16,> 40 µM (inactive),COC(=O)c1ccc2c(=O)n(CCCCCC(=O)NCCc3ccc(OC)c(OC)c3)c(=O)[nH]c2c1
17,> 40 µM (inactive),Cc1ccc2c(c1)N=C(c1ccc([N+](=O)[O-])cc1)CO2
18,> 40 µM (inactive),COCCCN1CCS(=O)(=O)c2c(Cl)c(F)nc(Oc3ccc(C#N)cc3)c21
19,> 40 µM (inactive),Nc1c(-c2ccc(Cl)cc2)cnc2cc(-c3ccc(Cl)c(Cl)c3)nn12
20,22 µM,O=C(/C=C/c1c(F)cccc1Cl)N1CCc2ccccc2C1
21,> 40 µM (inactive),COc1ccc(-c2cc(-c3ccc(F)cc3)[nH]c(=O)c2C#N)cc1
22,> 40 µM (inactive),Cc1cc(-c2ccc(S(=O)(=O)NCc3ccc(Cl)cc3)s2)on1
23,> 40 µM (inactive),COc1ccc(Cl)cc1C(=O)NNC(=O)c1cc(-c2ccccc2)n[nH]1

row,IC50,Structure (SMILES)
1,> 40 µM (inactive),O=C(NCc1ccco1)c1ccc(Cn2c(=O)c3sccc3n(Cc3cc(=O)n4ccccc4n3)c2=O)cc1
2,> 40 µM (inactive),N#Cc1ccc(NC(=O)Nc2cccn(Cc3ccc(F)cc3)c2=O)cc1
3,14.8 µM,O=C(Nc1cccc([N+](=O)[O-])c1)Nc1ccc2snnc2c1
4,> 40 µM (inactive),Cc1c(-c2nsc(NC(=O)c3ccc(Cl)cc3)n2)nnn1-c1ccccc1F
5,> 40 µM (inactive),Cc1ccccc1NC(=O)Cn1ccc2ccn(Cc3ccccc3)c2c1=O
6,30.9 µM,CCCCCCCCCCCCCCCc1cc(O)cc(O)c1C(=O)O
7,> 40 µM (inactive),COc1ccc(S(=O)(=O)NC2CC(=O)N(c3ccc(Cl)cc3)C2)cc1 (stereo not given)
8,> 40 µM (inactive),COc1ccc(C(=O)COC(=O)c2cccc(NC(=O)c3ccc(Cl)cc3)c2)cc1
9,21.4 µM,O=C(OC1CSc2nc3ccccc3n2C1)c1ccc([N+](=O)[O-])o1 (stereo not given)
10,> 40 µM (inactive),Cc1ccc(NC(=O)Nc2ccc(C)n(CC(=O)Nc3cc(C)ccc3C)c2=O)cc1
11,> 40 µM (inactive),CC(=O)c1cc(-c2ccc(F)cc2)n(CC(=O)Nc2cccc(C)c2C)c1C
12,> 40 µM (inactive),COc1ccccc1Nc1ncc(C(=O)NCc2ccc(F)cc2)c2ccccc12
13,> 40 µM (inactive),Cc1ccc(N2CC(C(=O)Nc3cccc(-c4noc(C)n4)c3)CC2=O)cc1 (stereo not given)
14,> 40 µM (inactive),N#Cc1ccc(NC(=O)Nc2cccn(Cc3c(F)cccc3Cl)c2=O)cc1
15,> 40 µM (inactive),COc1ccc(NC(=O)c2[nH]nc3c2COc2ccccc2-3)c(OC)c1
16,8.62 µM,CCCCCCCC1OC(=O)Cc2cc(O)c(O)c(O)c21 (stereo not given)
17,> 40 µM (inactive),O=C(Nc1ccc(NC(=O)c2ccccc2O)cc1)Nc1ccc(OCc2ccccc2)cc1
18,> 40 µM (inactive),COc1ccc(-n2ccc(=O)c(-c3nc(-c4ccc(F)cc4)no3)n2)cc1
19,> 40 µM (inactive),Cc1noc(-c2ccnc(-n3cnc(C(=O)NCC4CC4)c3)c2)n1
20,> 40 µM (inactive),O=C(Nc1ccccc1Cl)c1cc(-c2ccncc2)n[nH]1
21,0.722 µM,CCc1[nH]c(=O)cc2cc(OC)c(OC)cc12
22,> 40 µM (inactive),O=C(COc1nc2ccccc2nc1N1CCOCC1)NC(c1ccccc1)c1ccccc1
23,> 40 µM (inactive),COC(=O)c1ccc2c(=O)n(CCCCCC(=O)NCCc3ccccc3Cl)c(=O)[nH]c2c1

row,IC50,Structure (SMILES)
1,> 40 µM (inactive),FC(F)(F)c1ccc(Nc2nnnc3ccccc23)cc1
2,> 40 µM (inactive),COc1ccc(NC(=O)Cn2cc(C(=O)c3ccc(F)cc3)c(=O)c3cc(C)ccc32)cc1
3,> 40 µM (inactive),Cc1ccc(C)c(S(=O)(=O)N2CCN(c3ccc4nnc(-c5ccco5)n4n3)CC2)c1
4,20.6 µM,COc1ccc(OC)c(-c2cn3ccn(-c4ccc(F)c(Cl)c4)c(=O)c3n2)c1
5,> 40 µM (inactive),Cc1ccc(C(=O)NCc2ccc(C(=O)Nc3ccc(Cl)cc3)o2)cc1
6,> 40 µM (inactive),CS(=O)(=O)c1cccc(C(=O)Nc2sc3c(c2C(N)=O)CCCC3)c1
7,> 40 µM (inactive),CCn1c(SCC(=O)Nc2ccc(C)c(Cl)c2)nnc1-c1ccc2c(c1)OCCO2
8,> 40 µM (inactive),Cc1cc(Nc2ccc(C(=O)NCc3ccco3)cc2)n2nc(-c3cccnc3)nc2n1
9,> 40 µM (inactive),O=C(CSc1nnc2n(-c3ccccc3)c(=O)c3ccccc3n12)c1ccc(F)cc1
10,> 40 µM (inactive),COc1cccc(NC(=O)c2cn(-c3cc(N4CCCC4)ncn3)cn2)c1
11,> 40 µM (inactive),Cn1cc(C(=O)NCC2COc3ccccc3O2)c(=O)c2cc(S(=O)(=O)N3CCCCC3)ccc21 (stereo not given)
12,> 40 µM (inactive),O=C(Cn1c(CNC(=O)c2ccccc2)nc2ccccc21)Nc1ccc(F)cc1
13,2.01 µM,O=c1cc(-c2ccc(O)c(O)c2)oc2cc(O[C@@H]3O[C@H](CO)[C@@H](O)[C@H](O)[C@H]3O)cc(O)c12
14,> 40 µM (inactive),CCOc1ccc2c(c1)c(=O)c(C(=O)c1ccc(C)cc1)cn2CC(=O)Nc1ccc(OC)c(OC)c1
15,> 40 µM (inactive),Cc1ccc(NC(=O)Cn2c(=O)n(CC(=O)NCCc3ccccc3)c(=O)c3sccc32)cc1C
16,> 40 µM (inactive),O=C(Cn1ccc2ccn(Cc3ccccc3)c2c1=O)Nc1ccccc1Cl
17,> 40 µM (inactive),COc1ccc(CNC(=O)C(C)n2nc(-c3ccco3)c(-c3cc(C)no3)cc2=O)cc1 (stereo not given)
18,> 40 µM (inactive),COc1cc(NC(=O)Cn2nc(-c3ccc(F)cc3)ccc2=O)ccc1-n1cnnn1
19,> 40 µM (inactive),CCN(c1ccc(NC(=O)COC(=O)c2cccnc2Nc2cccc(C(F)(F)F)c2)cc1)C(C)C
20,> 40 µM (inactive),COc1ccccc1CN1CCC(c2cc(=O)[nH]c(-c3cccnc3)n2)CC1

row,Structure (SMILES),IC50
1,C=C/C(=C/C(=O)C[C@H](C)C[C@@H](C)CC[C@H](O)[C@H](C)C(=O)CC(O)[C@H](C)[C@@H](C)OC(=O)C[C@@H](O)C1=C(C)C(=O)OC1=O)CC (stereo not given in full),2.6 µM
